Results as given in patent publication US20230272479A1, “BIOMARKER BASED PATIENT SELECTION FOR PROTEASOME INHIBITOR TREATMENT” (University of Utah Research Foundation, priority 2020, published 2023).
Residues, ends and D or L forms follow the SMILES beside them. *: point of attachment. Cbz = O=C(OCc1ccccc1)*; CH2F = FC*

Columns and labels:
H4 glioma cells = test: BH3 profiling (cytochrome C release / MOMP) in permeabilized H4 glioma cells; format: cell-based; settings: compared across ATAD1 status
Protocol: Cells were treated with doxycycline (250 ng/mL) for 24 hr (F) Co-immunoprecipitation of ATAD1-FLAG/HA and GFP-BIMEL in cells stably expressing ATAD1-FLAG or EV and transiently transfected overnight with GFP-BIMEL in the presence of zVAD-fmk (G) RPMI7951 cells were treated with MG132 (10 μM) for 4 hr, whole-cell lysates were prepped and analyzed by Western blot. (H) Schematic of reconstituted proteoliposome extraction assay (I) Extraction assay using His-ATAD1 and 3×FLAG-BIML (lanes 1-4, 9-20) or the negative control TA protein, 3×FLAG-Fis1 (lanes 5-8); GST-tagged SGTA and calmodulin (CaM) are included as chaperones to catch extracted TA protein. “I”=Input, “FT”=flow-through, “W”=final wash, “E”=elution. Eluted fractions represent TA proteins extracted by ATAD1 and bound by GST-tagged chaperones; compare elution “E” to input “I”. † denotes P<0.0001
To gain insight into how loss of ATAD1 affects apoptotic priming, BH3 profiling was conducted (33). Here, permeabilized cells are treated with BH3 peptides derived from different pro-apoptotic BH3-only proteins, and mitochondrial outer membrane permeability (MOMP) is directly measured by detecting cytochrome C release from mitochondria (FIG. 3A). […] This priming reflects a change in how the cell regulates the endogenous BIM protein. […]

[1] = test system: Del10q23 cells (SW1088 and H4 glioma and RPMI7951 melanoma); test: Viability of Del10q23 cells treated with proteasome inhibitors (Cell Titer Glo, crystal violet); format: cell-based
Protocol: (§1) FIGS. 4A-4K show ATAD1 protects cells from apoptosis induced by proteasome dysfunction. (A) Viability of SW1088 cells transduced with EV or ATAD1-FLAG and treated for 24 hr with indicated drugs (B) Time-course of viability in response to bortezomib treatment in SW1088 cells (C) Western blot of RPMI7951 whole cell lysate treated with 10 nM bortezomib for 8 hr (D) Quantification of C (E) Viability of ATAD1-null vs. re-expressing RPMI7951 cells in response to 16 hr treatment with BTZ and the pan-caspase inhibitor, zVAD-FMK (20 μM) or DMSO (zVAD vehicle) (F) Same as E, but viability was measured by crystal violet staining and quantified in (G). (H) Schematic describing the role of ATAD1 in proteasome inhibitor toxicity (I) Tumor size of subcutaneous xenografts of SW1088 cells in NOD/SCID mice over time (J) Incidence of palpable tumors, or tumor-free survival, over time (K) Proliferation of cultured SW1088 cells as measured with crystal violet staining, n=2 independent experiments. † represents P<0.0001
(§2) FIGS. 8A-8I show restoring ATAD1 expression in Del(10q23) cells increases resistance to proteasome inhibitors. (A) RPMI7951 cells were treated for 16 hr with bortezomib or carfilzomib and viability was measured by Cell Titer Glo. (B) Time-course of RPMI7951 cells treated with bortezomib (3.125 nM) n=3 biological replicates (C) SW1088 cells were cultured in 5 nM bortezomib for 48 hr and RPMI7951 cells were cultured for 24 hr and viability was assessed by crystal violet staining (D) H4 cells were treated with bortezomib for 24 hr and assessed by Cell Titer Glo (E) ATAD1 addback rescues mitochondrial morphology phenotype in response to bortezomib in SW1088 cells. Cells were treated with BTZ (10 nM) for 12 hr and stained with MitoTracker Red, then imaged on a widefield fluorescence microscope (F) Expression of ATAD1 in DepMap cell lines, highlighting PC3 cells (ATAD1 hemizygous), and two Del10q23 cell lines (G) Generation of ATAD1-deficient, polyclonal PC3 cells using stable expression of sgATAD1 (in LCv2G), with untargeted Cas9 only as a control (LCv2G) (H) Deletion of ATAD1 increases sensitivity to bortezomib in PC3 cells. […]
(§3) Viability was determined by Cell Titer Glo (Promega) according to the manufacturer's recommendation, with some modifications. […] Luminescence was measured using a Biotek Synergy Neo2 microplate reader. Luminescence values were normalized on each plate to untreated cells on the same plate, and expressed as percent.
Cells cultured in 12 or 6 well plates were washed twice with PBS then fixed with 4% paraformaldehyde (Sigma Aldrich) for 30 minutes at room temperature. […] Absorbance was measured at 590 nm using a Biotek Synergy Neo2 microplate reader, and values were normalized to those from untreated cells of the same genotype on each plate.

Jurkat cells = test: Viability of WT or ATAD1Δ Jurkat cells after treatment with MCL1 inhibitor; format: cell-based, human; settings: ATAD1Δ vs WT Jurkat cells, 24 hr treatment
Protocol: FIGS. 2A-2G show genome-wide CRISPR screens identify genetic interactions with ATAD1 (A) Schematic of CRISPR screening strategy (B) Generation of clonal ATAD1 knockout in a PTEN-null genetic background of Jurkat cells and proliferation rate of ATAD1Δ and WT Jurkat cells in RPMI1640 media (C) Volcano plot of CRISPR screening results; CRISPR scores were defined as the mean Log2 fold-change of sgRNAs targeting a given gene. Differential CRISPR scores (dCS) were calculated by subtracting the WT CS from the ATAD1Δ CS. dCS combined is the sum of dCS values for each clone. P-values were calculated for each gene using Kolmogorov-Smirnov with Benjamini Hochberg correction and Fisher's Method for P value meta-analysis. Dashed lines demarcate dCS<−2 and Padj<0.05 (D) DepMap data showing correlation of MARCH5 dependency and MCL1 dependency (E) Western blot of whole cell lysates from WT or ATAD1Δ Jurkat cells showing steady-state levels of BIM, MCL1, and FIS1, a non-BCL2 family control (F) Quantification of BIMEL levels in ATAD1Δ cells; n=6 independent experiments (G) Viability of WT or ATAD1Δ Jurkat cells after 24 hr treatment with the MCL1 inhibitor, AMG176.
Thus, like MARCH5, ATAD1 modulates members the BCL2 family and affects apoptotic priming as measured by sensitivity to a BH3-mimetic. […]

RPMI7951 cells = test: Viability of ATAD1-null vs. re-expressing RPMI7951 cells with BTZ and pan-caspase inhibitor; format: cell-based; settings: 16 hr BTZ, zVAD-FMK 20 μM
Protocol: as §1
as §3, with “percent. […]” for “percent.”

[2] = test system: Del10q23 cells (RPMI7951); test: Apoptosis by Western blot of whole cell lysate after bortezomib; format: cell-based; settings: RPMI7951, 10 nM, 8 hr
Protocol: as §1
Whole cell lysates were prepared by scraping cells directly into RIPA buffer supplemented with protease and phosphatase inhibitors (Sigma Aldrich P8340, Roche Molecular 04906845001), incubated on ice for 30 minutes with vortexing every 10 min, and then spun at 16,000 g for 10 minutes at 4° C. to remove insoluble material. Supernatant was saved as lysate. […]

PC3 cells = test: Viability of PC3 cells with ATAD1 deletion or overexpression treated with bortezomib; format: cell-based
Protocol: as §2
Viability was determined by Cell Titer Glo (Promega) according to the manufacturer's recommendation, with some modifications. […] Luminescence was measured using a Biotek Synergy Neo2 microplate reader. […]

[3] = Del10q23 cells (ATAD1-null, EV)
[4] = Del10q23 cells with expression of ATAD1

`CC(=O)NC(C)(C)C(=O)N1CCC[C@H]1C(=O)NC(C)(C)C(=O)N[C@@H](C)C(=O)NC(C)(C)C(=O)N[C@@H](C)C(=O)N[C@@H](CCC(N)=O)C(=O)NC(C)(C)C(=O)N[C@H](C(=O)NC(C)(C)C(=O)NCC(=O)N[C@@H](CC(C)C)C(=O)NC(C)(C)C(=O)N1CCC[C@H]1C(=O)N[C@H](C(=O)NC(C)(C)C(=O)NC(C)(C)C(=O)N[C@@H](CCC(=O)O)C(=O)N[C@@H](CCC(N)=O)C(=O)N[C@H](CO)Cc1ccccc1)C(C)C)C(C)C` [Alamethicin] (HELM PEPTIDE1{[ac].[Aib].P.[Aib].A.[Aib].A.Q.[Aib].V.[Aib].G.L.[Aib].P.V.[Aib].[Aib].E.Q.[OC[C@H](Cc1ccccc1)N[*:1]]}$$$$V2.0) was tested, and the “cytochrome C release” value (H4 glioma cells) was “induced cytochrome C release equally regardless of ATAD1 status”.

With `CC(C)C[C@H](NC(=O)[C@H](CCc1ccccc1)NC(=O)CN1CCOCC1)C(=O)N[C@@H](Cc1ccccc1)C(=O)N[C@@H](CC(C)C)C(=O)[C@@]1(C)CO1` [carfilzomib] the loss of viability [1, 3] was “potently and rapidly induced a loss of viability” and the loss of viability [1, 4] was “mitigated by expression of ATAD1”.

For `CO[C@H]1/C=C/C[C@H](C)[C@@H](C)S(=O)(=O)NC(=O)c2ccc3c(c2)N(C[C@@H]2CC[C@H]21)C[C@@]1(CCCc2cc(Cl)ccc21)CO3` [AMG176], the “apoptotic priming (sensitivity to BH3-mimetic, viability)” value (Jurkat cells) was “primed cells for apoptosis induced by AMG176”.

With `COC(=O)C[C@H](NC(=O)[C@H](C)NC(=O)[C@@H](NC(=O)OCc1ccccc1)C(C)C)C(=O)CF` [zVAD] (Cbz-Val-Ala-Asp(OMe)-CH2F) the “effect on viability under bortezomib” value (RPMI7951 cells) was “minimal additive effect”.

`CC(C)C[C@H](NC(=O)[C@H](Cc1ccccc1)NC(=O)c1cnccn1)B(O)O` [bortezomib] was tested, and the apoptosis ([2]; ATAD1 re-expressing cells) was “only minimally”, the apoptosis ([2]; Del10q23-EV cells) was “robust apoptosis” and the loss of viability [1, 3] was “potently and rapidly induced a loss of viability”. The loss of viability [1, 4] was “mitigated by expression of ATAD1”, the “sensitivity (viability)” value (PC3 cells; deletion of the remaining allele of ATAD1) was “sensitized to bortezomib” and the “resistance (viability)” value (PC3 cells; overexpression of ATAD1 (not ATAD1E193Q)) was “increased resistance to bortezomib”.
